In patent publication US20250171438A1 (Agios Pharmaceuticals, Inc., priority 2022, published 2025):

Each compound was assayed against T1, human PAH with the R408W mutation (Homo sapiens, UniProt P00439, R408W) (assay: Cell Based Phenylalanine Flux Assay). Conditions: A375 cells expressing human R408W PAH; 24 hrs compound incubation; 13C-Tyrosine by LC-MS; average where tested multiple times; read-out: AC50.
T1 construct: expressed in transfected cells
T1 sequence (P00439 1-452 R408W): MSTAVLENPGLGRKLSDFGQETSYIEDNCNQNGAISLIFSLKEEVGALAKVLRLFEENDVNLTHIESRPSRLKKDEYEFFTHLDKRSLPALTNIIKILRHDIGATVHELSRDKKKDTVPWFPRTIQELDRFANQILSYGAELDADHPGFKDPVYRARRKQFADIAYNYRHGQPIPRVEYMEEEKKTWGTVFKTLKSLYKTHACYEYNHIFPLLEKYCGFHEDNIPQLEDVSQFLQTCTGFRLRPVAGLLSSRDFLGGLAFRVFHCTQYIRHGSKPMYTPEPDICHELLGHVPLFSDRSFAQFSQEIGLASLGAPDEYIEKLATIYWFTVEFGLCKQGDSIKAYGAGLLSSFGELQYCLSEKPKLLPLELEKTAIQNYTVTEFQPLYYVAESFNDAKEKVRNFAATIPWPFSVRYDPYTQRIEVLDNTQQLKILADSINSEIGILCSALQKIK

AC50 [nM] | Structure (SMILES)
1000 to 5000 | N#Cc1nc(NC2CC2)oc1C(=O)N1CCc2[nH]cnc2[C@H]1c1nc2ccccc2s1 [Example 1699, (S)-5-(4-(benzo[d]thiazol-2-yl)-4,5,6,7-tetrahydro-1H-imidazo[4,5-c]pyridine-5-carbonyl)-2-(cyclopropylamino)oxazole-4-carbonitrile]
< 500 | Cc1nc(CCCN2CCOCC2)oc1C(=O)N1CCc2[nH]cnc2[C@H]1c1nc2ccccc2s1 [Example 1701]
> 5000 | Cc1nc(CCCN2CCOCC2)oc1C(=O)N1CCc2[nH]cnc2[C@@H]1c1nc2ccccc2s1 [Example 1702, (R)-(4-(benzo[d]thiazol-2-yl)-6,7-dihydro-1H-imidazo[4,5-c]pyridin-5(4H)-yl)(4-methyl-2-(3-morpholinopropyl)oxazol-5-yl)methanone]
500 to 1000 | N#Cc1nc(N2CCOCC2)oc1C(=O)N1CCc2[nH]cnc2[C@H]1c1nc2ccccc2s1 [Example 1705, (S)-5-(4-(benzo[d]thiazol-2-yl)-4,5,6,7-tetrahydro-1H-imidazo[4,5-c]pyridine-5-carbonyl)-2-morpholinooxazole-4-carbonitrile]
> 5000 | N#Cc1nc(N2CCOCC2)oc1C(=O)N1CCc2[nH]cnc2[C@@H]1c1nc2ccccc2s1 [Example 1706, (R)-5-(4-(benzo[d]thiazol-2-yl)-4,5,6,7-tetrahydro-1H-imidazo[4,5-c]pyridine-5-carbonyl)-2-morpholinooxazole-4-carbonitrile]
< 500 | O=C(c1oc(N2CCC(F)CC2)nc1C(F)F)N1CCc2[nH]cnc2[C@H]1c1nc2ccccc2s1 [Example 1707]
< 500 | O=C(c1oc(N2CCC(F)CC2)nc1C(F)F)N1CCc2[nH]cnc2[C@@H]1c1nc2ccccc2s1 [Example 1708, (R)-(4-(benzo[d]thiazol-2-yl)-6,7-dihydro-1H-imidazo[4,5-c]pyridin-5(4H)-yl)(4-(difluoromethyl)-2-(4-fluoropiperidin-1-yl)oxazol-5-yl)methanone]
< 500 | O=C(c1nnc(-c2ncccc2F)o1)N1CCc2[nH]cnc2[C@@H]1c1nc2ccccc2s1 [Example 1709, (R)-(4-(benzo[d]thiazol-2-yl)-6,7-dihydro-1H-imidazo[4,5-c]pyridin-5(4H)-yl)(5-(3-fluoropyridin-2-yl)-1,3,4-oxadiazol-2-yl)methanone]
1000 to 5000 | O=C(c1nnc(-c2ncccc2F)o1)N1CCc2[nH]cnc2[C@H]1c1nc2ccccc2s1 [Example 1710]
> 5000 | N#Cc1nc(-c2ccccn2)oc1C(=O)N1CCc2[nH]cnc2[C@@H]1c1nc2ccccc2s1 [Example 1713, (R)-5-(4-(benzo[d]thiazol-2-yl)-4,5,6,7-tetrahydro-1H-imidazo[4,5-c]pyridine-5-carbonyl)-2-(pyridin-2-yl)oxazole-4-carbonitrile]
< 500 | N#Cc1nc(-c2ccccn2)oc1C(=O)N1CCc2[nH]cnc2[C@H]1c1nc2ccccc2s1 [Example 1714, (S)-5-(4-(benzo[d]thiazol-2-yl)-4,5,6,7-tetrahydro-1H-imidazo[4,5-c]pyridine-5-carbonyl)-2-(pyridin-2-yl)oxazole-4-carbonitrile]
< 500 | O=C(c1oc(NC2CC2)nc1C(F)F)N1CCc2[nH]cnc2[C@H]1c1nc2ccccc2s1 [Example 1715]
1000 to 5000 | O=C(c1oc(NC2CC2)nc1C(F)F)N1CCc2[nH]cnc2[C@@H]1c1nc2ccccc2s1 [Example 1716, (R)-(4-(benzo[d]thiazol-2-yl)-6,7-dihydro-1H-imidazo[4,5-c]pyridin-5(4H)-yl)(2-(cyclopropylamino)-4-(difluoromethyl)oxazol-5-yl)methanone]
< 500 | O=C(c1nnc(-c2ccccn2)o1)N1CCc2[nH]cnc2[C@H]1c1nc2ccc(F)cc2s1 [Example 1720, (S)-(4-(6-fluorobenzo[d]thiazol-2-yl)-6,7-dihydro-1H-imidazo[4,5-c]pyridin-5(4H)-yl)(5-(pyridin-2-yl)-1,3,4-oxadiazol-2-yl)methanone]
500 to 1000 | COCCc1nc(C)c(C(=O)N2CCc3[nH]cnc3[C@H]2c2nc3ccccc3s2)o1 [Example 1729, (S)-(4-(benzo[d]thiazol-2-yl)-1,4,6,7-tetrahydro-5H-imidazo[4,5-c]pyridin-5-yl)(2-(2-methoxyethyl)-4-methyloxazol-5-yl)methanone]
> 5000 | COCCc1nc(C)c(C(=O)N2CCc3[nH]cnc3[C@@H]2c2nc3ccccc3s2)o1 [Example 1730, (R)-(4-(benzo[d]thiazol-2-yl)-1,4,6,7-tetrahydro-5H-imidazo[4,5-c]pyridin-5-yl)(2-(2-methoxyethyl)-4-methyloxazol-5-yl)methanone]

The remaining lines, values behind:

Structure (SMILES) | AC50 [nM]
COCc1ncc(C(=O)N2CCc3[nH]cnc3[C@H]2c2nc3c(F)cccc3s2)s1 [Example 1703, (S)-(4-(4-fluorobenzo[d]thiazol-2-yl)-6,7-dihydro-1H-imidazo[4,5-c]pyridin-5(4H)-yl)(2-(methoxymethyl)thiazol-5-yl)methanone] | 500 to 1000
COCc1ncc(C(=O)N2CCc3[nH]cnc3[C@@H]2c2nc3c(F)cccc3s2)s1 [Example 1704, (R)-(4-(4-fluorobenzo[d]thiazol-2-yl)-6,7-dihydro-1H-imidazo[4,5-c]pyridin-5(4H)-yl)(2-(methoxymethyl)thiazol-5-yl)methanone] | 1000 to 5000
O=C(c1nnc(-c2ccc(F)cn2)o1)N1CCc2[nH]cnc2[C@H]1c1nc2c(F)cccc2s1 [Example 1711, (S)-(4-(4-fluorobenzo[d]thiazol-2-yl)-6,7-dihydro-1H-imidazo[4,5-c]pyridin-5(4H)-yl)(5-(5-fluoropyridin-2-yl)-1,3,4-oxadiazol-2-yl)methanone] | 1000 to 5000
O=C(c1nnc(-c2ccc(F)cn2)o1)N1CCc2[nH]cnc2[C@@H]1c1nc2c(F)cccc2s1 [Example 1712, (R)-(4-(4-fluorobenzo[d]thiazol-2-yl)-6,7-dihydro-1H-imidazo[4,5-c]pyridin-5(4H)-yl)(5-(5-fluoropyridin-2-yl)-1,3,4-oxadiazol-2-yl)methanone] | < 500
O=C(c1nnc(-c2ccccn2)o1)N1CCc2[nH]cnc2[C@@H]1c1nc2cccc(F)c2s1 [Example 1717, (R)-(4-(7-fluorobenzo[d]thiazol-2-yl)-6,7-dihydro-1H-imidazo[4,5-c]pyridin-5(4H)-yl)(5-(pyridin-2-yl)-1,3,4-oxadiazol-2-yl)methanone] | 500 to 1000
O=C(c1nnc(-c2ccccn2)o1)N1CCc2[nH]cnc2[C@H]1c1nc2cccc(F)c2s1 [Example 1718, (S)-(4-(7-fluorobenzo[d]thiazol-2-yl)-6,7-dihydro-1H-imidazo[4,5-c]pyridin-5(4H)-yl)(5-(pyridin-2-yl)-1,3,4-oxadiazol-2-yl)methanone] | < 500
O=C(c1nnc(-c2ccccn2)o1)N1CCc2[nH]cnc2[C@@H]1c1nc2ccc(F)cc2s1 [Example 1719, (R)-(4-(6-fluorobenzo[d]thiazol-2-yl)-6,7-dihydro-1H-imidazo[4,5-c]pyridin-5(4H)-yl)(5-(pyridin-2-yl)-1,3,4-oxadiazol-2-yl)methanone] | 1000 to 5000
Cn1nc(Cl)cc1C(=O)N1CCc2[nH]cnc2[C@H]1c1nc2c(F)cccc2s1 [Example 1721] | < 500
Cn1nc(Cl)cc1C(=O)N1CCc2[nH]cnc2[C@@H]1c1nc2c(F)cccc2s1 [Example 1722, (R)-(3-chloro-1-methyl-1H-pyrazol-5-yl)(4-(4-fluorobenzo[d]thiazol-2-yl)-6,7-dihydro-1H-imidazo[4,5-c]pyridin-5(4H)-yl)methanone] | 1000 to 5000
COCCn1nccc1C(=O)N1CCc2[nH]cnc2[C@H]1c1nc2c(F)cccc2s1 [Example 1723, (S)-(4-(4-fluorobenzo[d]thiazol-2-yl)-6,7-dihydro-1H-imidazo[4,5-c]pyridin-5(4H)-yl)(1-(2-methoxyethyl)-1H-pyrazol-5-yl)methanone] | < 500
COCCn1nccc1C(=O)N1CCc2[nH]cnc2[C@@H]1c1nc2c(F)cccc2s1 [Example 1724, (R)-(4-(4-fluorobenzo[d]thiazol-2-yl)-6,7-dihydro-1H-imidazo[4,5-c]pyridin-5(4H)-yl)(1-(2-methoxyethyl)-1H-pyrazol-5-yl)methanone] | < 500
Cn1nncc1C(=O)N1CCc2[nH]cnc2[C@H]1c1nc2c(F)cccc2s1 [Example 1725] | 500 to 1000
Cn1nncc1C(=O)N1CCc2[nH]cnc2[C@@H]1c1nc2c(F)cccc2s1 [Example 1726, (R)-(4-(4-fluorobenzo[d]thiazol-2-yl)-6,7-dihydro-1H-imidazo[4,5-c]pyridin-5(4H)-yl)(1-methyl-1H-1,2,3-triazol-5-yl)methanone] | 1000 to 5000
Cn1cc(-c2nnc(C(=O)N3CCc4[nH]cnc4[C@@H]3c3nc4c(F)cccc4s3)o2)cn1 [Example 1727, (R)-(4-(4-fluorobenzo[d]thiazol-2-yl)-6,7-dihydro-1H-imidazo[4,5-c]pyridin-5(4H)-yl)(5-(1-methyl-1H-pyrazol-4-yl)-1,3,4-oxadiazol-2-yl)methanone] | 1000 to 5000
Cn1cc(-c2nnc(C(=O)N3CCc4[nH]cnc4[C@H]3c3nc4c(F)cccc4s3)o2)cn1 [Example 1728, (S)-(4-(4-fluorobenzo[d]thiazol-2-yl)-6,7-dihydro-1H-imidazo[4,5-c]pyridin-5(4H)-yl)(5-(1-methyl-1H-pyrazol-4-yl)-1,3,4-oxadiazol-2-yl)methanone] | < 500
